Results: patent US20200031811A1, “SUBSTITUTED MONO- AND POLYAZANAPHTHALENE DERIVATIVES AND THEIR USE” (Basilea Pharmaceutica International AG, priority 2015, published 2020)

Columns and labels:
[1] = molecular target: T1, MNK1 (Homo sapiens, UniProt Q9BUB5); experiment: MNK inhibition assay (Z-Lyte kinase assay, Ser/Thr 7 peptide); format: biochemical; settings: for IC50: recombinant GST-MNK1, 3 hours at 31° C.
T1 construct: purchased Life Technologies or Carna Biosciences PV6023 or 02-145; host or cells: baculovirus infected insect cells
Excerpt: For the measurement of the activity of the MNK1 kinase the Z-Lyte kinase assay system was used. The kinase activity of MNK1 can be quantified with the Z-Lyte kinase assay kit Ser/Thr 7 peptide (Life Technologies PV3180). The kit was utilized according to the instructions of the provider. A recombinant GST-MNK1 fusion protein produced in and purified from baculovirus infected insect cells was used as enzyme source (GST-MNK1 Life Technologies PV6023 or Carna Biosciences 02-145). It was verified that both sources of the MNK1 enzyme gave similar IC50 values with several compounds. The MNK1 enzyme assay was performed in 384 well round bottom black microtiter plates (Corning 3676). The kinase reaction was performed for 3 hours at 31° C. As instructed by the provider of the kit the amount of enzyme was chosen such that ˜30% of the substrate peptide was phosphorylated in control wells containing buffer only. The MNK1 inhibiting activity of compounds was tested by adding the compounds to the kinase reaction at a concentration of 10000, 5000, 2000, 1000, 500, 200, 100, 50 nM. Compounds with strong MNK1 inhibition were tested at 20, 10, 5, 2, 1 and 0.5 nM in addition. Each compound concentration was tested at least in duplicate. The % phosphorylation of the substrate peptide at each compound concentration was calculated as described in the assay manual. The fluorescent signals were recordes on Biotek Cytation 3 microplate reader. The IC50, the concentration that reduced substrate phosphorylation by 50% if compared to buffer only wells, was calculated with the Grafit 6 software (Erythacus software).

[2] = test system: human pancreatic cancer cell line MiaPaCa2 (ATCC CRL-1420); experiment: Cell growth assay (CellTiterGlo, 72 hours); format: cell-based; settings: for inhibition at 100 µM: MIA PaCa-2, at 100 μM; for IC50: MIA PaCa-2, MiaPaCa2 cells, 72 hours, read-out: IC50 MiaPaCa
Method: The inhibition of cell growth by the compounds was tested by exposing the human pancreatic cancer cell line MiaPaCa2 (ATCC CRL-1420) to the compounds. The assay was performed in 384 well clear bottom white microtiter plates (Greiner #781098). Each well was seeded with 10^3 cells in 20 μl of Dulbecco's modified Eagle's medium (Sigma D6796) supplied with 10% fetal calf scrum (Sigma F7524), 2.5% horse serum (Sigma H0146), 1% Penicillin-Streptomycin (Sigma P0781), 1% MEM nonessential amino acid solution 100× (Sigma M71459) and 1% 200 mM L-Glutamine (Sigma G7513) culture medium. After overnight incubation at 37° C. in 5% CO2 the compounds were added in the following concentrations: 100, 50, 20, 10, 5, 2, 1, 0.5, 0.2 and 0.1 μM. Each compound concentration was tested in quadruplicate. The incubation was then continued for 72 hours. After 72 hours the growth of the cells was assessed by the addition of the CellTiterGlo reagent (Promega G9242) as instructed by the provider. The luminescent signal was recorded on a SpectraMax M2 microplate reader. The signal obtained in wells containing cells cultivated in the absence of compound was set to 100% growth after subtracting the signal obtained in medium only wells. The % growth in each well was calculated by subtracting the medium only value and dividing through the 100% growth value. The IC50 for cell growth, the concentration of compound at which cell growth was reduced to 50%, was calculated with the GraFit6 software (Erythacus software).

[3] = read-out: Inhibition of MiaPaCa growth at indicated concentration

T1 sequence (Q9BUB5 whole entry): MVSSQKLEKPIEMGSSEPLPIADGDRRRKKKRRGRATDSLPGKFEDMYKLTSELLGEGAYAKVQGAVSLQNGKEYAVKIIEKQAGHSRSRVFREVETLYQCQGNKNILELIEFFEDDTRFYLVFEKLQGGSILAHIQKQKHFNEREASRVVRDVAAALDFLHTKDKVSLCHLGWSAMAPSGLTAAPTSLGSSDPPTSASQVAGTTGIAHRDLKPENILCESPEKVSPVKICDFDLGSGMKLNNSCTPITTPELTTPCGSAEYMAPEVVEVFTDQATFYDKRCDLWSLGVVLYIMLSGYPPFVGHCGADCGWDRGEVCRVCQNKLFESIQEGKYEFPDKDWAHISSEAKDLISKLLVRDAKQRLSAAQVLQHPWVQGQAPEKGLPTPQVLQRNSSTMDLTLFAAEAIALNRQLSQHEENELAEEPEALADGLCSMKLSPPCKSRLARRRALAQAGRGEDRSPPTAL

Compound	IC50 [1] [µM]	inhibition at 100 µM [2, 3] [%]	inhibition at 50 µM ([2]; MIA PaCa-2, at 50 μM, read-out: Inhibition of MiaPaCa growth at indicated concentration) [%]	IC50 [2] [µM]	inhibition at 10 µM ([1]; at 10 μM, read-out: Inhibition of MNK1 activity at indicated concentration) [%]
Oc1ccc(-c2cncc3ccc(CNC4CCNCC4)cc23)cc1 [Example 40]	0.263	48	–	–	–
Oc1ccc(-c2cncc3ccc(CNC4CCNC4)cc23)cc1 (stereo not shown) [Example 41]	0.254	67	–	–	–
NC1CCC(NCc2ccc3cncc(-c4ccc(O)cc4)c3c2)C1 (stereo not shown) [Example 42, 4-[6-[[(3-Aminocyclopentyl)amino]methyl]-4-isoquinolyl]phenol]	0.496	–	44	–	–
CN(C)CCCNCc1ccc2cncc(-c3ccc(O)cc3)c2c1 [Example 43, 4-[6-[[3-(Dimethylamino)propylamino]methyl]-4-isoquinolyl]phenol]	0.219	–	–	32.2	–
NCCCOCc1ccc2cncc(-c3ccc(O)cc3)c2c1 [Example 44, 4-[6-(3-Aminopropoxymethyl)-4-isoquinolyl]phenol]	0.061	–	–	20.6	–
CN(C)C1CCN(Cc2ccc3cncc(-c4cc5ccccc5o4)c3c2)CC1 [Example 46, 1-[[4-(Benzofuran-2-yl)-6-isoquinolyl]methyl]-N,N-dimethyl-piperidin-4-amine]	0.618	–	–	8.21	–
CN1CCN(Cc2ccc3cncc(-c4cc5ccccc5o4)c3c2)CC1 [Example 47]	1.12	–	–	10.9	–
Nc1cccc(NCc2ccc3cncc(-c4cc5ccccc5o4)c3c2)c1 [Example 48]	1.15	–	–	25	–
Nc1ccc(NCc2ccc3cncc(-c4cc5ccccc5o4)c3c2)cc1 [Example 50]	0.384	–	–	5.59	–
NCc1ccccc1NCc1ccc2cncc(-c3cc4ccccc4o3)c2c1 [Example 51, 2-(Aminomethyl)-N-[[4-(benzofuran-2-yl)-6-isoquinolyl]methyl]aniline]	4.22	–	–	6.34	–
NCc1ccc(NCc2ccc3cncc(-c4cc5ccccc5o4)c3c2)cc1 [Example 52]	0.163	–	–	14.1	–
NCc1cccc(NCc2ccc3cncc(-c4cc5ccccc5o4)c3c2)c1 [Example 53]	0.58	–	–	18.6	–
Nc1cc[n+](Cc2ccc3cncc(-c4cc5ccccc5o4)c3c2)c2ccccc12 [Example 54, 1-[[4-(Benzofuran-2-yl)-6-isoquinolyl]methyl]quinolin-1-ium-4-amine]	0.015	–	–	2.85	–
Nc1cc[n+](Cc2ccc3cncc(-c4cc5ccccc5o4)c3c2)cc1 [Example 55]	0.014	–	–	1.83	–
Nc1ccc[n+](Cc2ccc3cncc(-c4cc5ccccc5o4)c3c2)c1 [Example 56]	0.143	85	–	–	–
Cc1c[n+](Cc2ccc3cncc(-c4cc5ccccc5o4)c3c2)ccc1N [Example 57]	0.0079	–	–	3.37	–
Nc1cc[n+](Cc2ccc3cncc(-c4cc5ccccc5o4)c3c2)cc1C(F)(F)F [Example 58]	0.05	–	–	13.6	–
Nc1cc[n+](Cc2ccc3cncc(-c4cc5ccccc5o4)c3c2)cc1O [Example 59]	0.09	–	–	47	–
c1ccc2oc(-c3cncc4ccc(CNc5ccncc5)cc34)cc2c1 [Example 61]	0.003	–	–	5.25	–
FC(F)(F)c1cc(NCc2ccc3cncc(-c4cc5ccccc5o4)c3c2)ccn1 [Example 64]	–	–	–	14.8	41
CN(Cc1ccc2cncc(-c3cc4ccccc4o3)c2c1)c1ccncc1 [Example 67]	0.057	–	–	5.58	–
CN(C)c1cc(NCc2ccc3cncc(-c4cc5ccccc5o4)c3c2)ccn1 [Example 68]	0.045	–	–	6.19	–
Cc1cnccc1NCc1ccc2cncc(-c3cc4ccccc4o3)c2c1 [Example 69]	0.017	–	–	7	–
Fc1cnccc1NCc1ccc2cncc(-c3cc4ccccc4o3)c2c1 [Example 70]	0.032	–	–	12.2	–
Clc1cnccc1NCc1ccc2cncc(-c3cc4ccccc4o3)c2c1 [Example 71]	0.128	–	–	10.3	–
COc1cnccc1NCc1ccc2cncc(-c3cc4ccccc4o3)c2c1 [Example 72]	0.012	–	–	5.08	–
